Where a SMILES comes first, the peptide text is derived from it. [ ]: non-standard residue; d: D form. dTrp(2-Me) = Cc1[nH]c2ccccc2c1C[C@@H](N)C(=O)O; Trp(2-Me) = Cc1[nH]c2ccccc2c1C[C@H](N)C(=O)O; d2Nal = N[C@H](Cc1ccc2ccccc2c1)C(=O)O; 3Amb = NCc1cccc(C(=O)O)c1; GABA = NCCCC(=O)O
Key:
Rattus norvegicus [1] = organism: Rattus norvegicus; test: (§1) In Vitro evaluation for growth hormone release from the pituitary incubates; type: functional
Rattus norvegicus [2] = test: Compound was evaluated for GH releasing properties after iv administration to infant rats; type: functional, organism-based
Sus scrofa [3] = organism: Sus scrofa; test: Compound was measured for elevated mean plasma IGF-1 (insulin like growth factor) concentrations in Swine; type: functional, organism-based
Sus scrofa [4] = organism: Sus scrofa; test: Compound was measured for IGF-1 increases in swine on days 4, 7, 10, and 14 approximately; type: functional
[5] = The intrinsic potency studied extensively in animals; type: functional
Canis familiaris [6] = test: Loss of body weight in dog is evaluated after compound was administered perorally to dog at a dose 5 mg/kg, once daily (control (wt) = 1.13+/-0.19); type: functional, Canis lupus familiaris; conditions: route oral
Rattus norvegicus [7] = organism: Rattus norvegicus; test: In vitro efficacy was evaluated for growth hormone release
[8] = Clearance rate was evaluated in rats; type: ADME, organism-based; conditions: rat, in vivo; read-out: Clearance rate
[9] = Half-life was evaluated in rats; type: ADME, organism-based; conditions: rat, in vivo
Rattus norvegicus [10] = test: Compound was measured as maximal GH release which showed iv potency and efficacy; type: functional, organism-based
[11] = Compound was evaluated for oral bioavailability in human; type: ADME, organism-based; conditions: in vivo
[12] = Compound was evaluated for half-life in humans; type: ADME, organism-based; conditions: human, in vivo
[13] = Clearance rate is evaluated rats; type: ADME, organism-based; conditions: rat, in vivo; read-out: Clearance rate
Canis familiaris [14] = test: Compound was tested for minimum effective dose in dogs through iv dose; type: functional; conditions: Canis lupus familiaris
Rattus norvegicus [15] = organism: Rattus norvegicus; test: as §1; type: functional; remark: listed apart in the source
Rattus norvegicus [16] = organism: Rattus norvegicus; test: The concentration of binding sites was evaluated; type: functional
[17] = Oral bioavailability measured in dogs; type: ADME, organism-based, Canis lupus familiaris; conditions: dog, in vivo
Rattus norvegicus [18] = organism: Rattus norvegicus; test: Compound was evaluated for binding affinity, which binds with high affinity to membranes isolated from rat hypothalamus; type: functional
[19] = Half-life period measured in dogs; type: ADME, organism-based, Canis lupus familiaris; conditions: dog, in vivo
Sus scrofa [20] = organism: Sus scrofa; test: Limited capacity to porcine pituitary membranes was evaluated; type: functional
Canis familiaris [21] = organism: Canis familiaris; test: Compound is evaluated for elevated GH in beagles with peroral dose; type: functional; conditions: Canis lupus familiaris, po
Canis familiaris [22] = test: Compound is evaluated for elevated GH in beagles with intravenous dose; type: functional; conditions: Canis lupus familiaris
Rattus norvegicus [23] = organism: Rattus norvegicus; test: compound was evaluated for GH release in the rat pituitary cell culture assay; type: functional; conditions: Pituitary gland cell
Rattus norvegicus [24] = organism: Rattus norvegicus; test: compound was evaluated for GH release in the rat pituitary cell; type: functional; conditions: Pituitary gland cell
Rattus norvegicus [25] = organism: Rattus norvegicus; test: compound was evaluated for GH release in rat; type: functional, organism-based
Rattus norvegicus [26] = test: Compound was measured for elevated levels of GH release in infant rats after administration subcutaneously at 300 ug/kg; type: functional, organism-based
[27] = Half-life period measured in dog; type: ADME, organism-based, Canis lupus familiaris; conditions: in vivo
Rattus norvegicus [28] = test: Compound was tested for effective dose rquired for GH release following iv administration to 4-week old anesthetized Sprague-Dawley rats; type: functional
Rattus norvegicus [29] = test: In Vivo efficacy was evaluated for growth hormone release; type: functional, organism-based
[30] = Compound was evaluated for the half-life in rats; type: ADME, organism-based; conditions: rat, in vivo
Rattus norvegicus [31] = organism: Rattus norvegicus; test: compound was evaluated for GH release in the rat; type: functional, organism-based
[32] = Compound was evaluated for the systemic clearance rate in rats; type: ADME, organism-based; conditions: rat, in vivo; read-out: Clearance rate

CSCC[C@@H](NC(=O)[C@H](Cc1ccccc1)NC(=O)CNC(=O)[C@H](Cc1ccccc1)NC(=O)[C@@H](N)Cc1ccc(O)cc1)C(N)=O
Concentration (Rattus norvegicus [1]): 10 µg/mL

Cc1[nH]c2ccccc2c1C[C@@H](NC(=O)CCCN)C(=O)N[C@H](Cc1ccc2ccccc2c1)C(=O)N[C@@H](Cc1ccccc1)C(=O)N[C@@H](CCCCN)C(N)=O (H-[GABA][dTrp(2-Me)][d2Nal]FK-NH2)
Concentration (Rattus norvegicus [2]): 198 ng/mL

CC(C)(N)C(=O)N[C@H](CCCc1ccccc1)C(=O)N1CCC2(CC1)CN(S(C)(=O)=O)c1ccccc12
Plasma concentration (Sus scrofa [3]): 62%
Increase (Sus scrofa [4]): 60%
EC50 [5]: 1.5 nM
Body weight (Canis familiaris [6]): 0.21 kg

CC(C)(CC(=O)N[C@@H]1CCc2ccccc2N(Cc2ccc(-c3ccccc3C(N)=O)cc2)C1=O)NC[C@H](O)CO
EC50 (Rattus norvegicus [7]): 3 nM

C[C@H](NC(=O)[C@@H](Cc1c[nH]c2ccccc12)NC(=O)CCc1c[nH]cn1)C(=O)N[C@@H](Cc1c[nH]c2ccccc12)C(=O)N[C@H](Cc1ccccc1)C(=O)N[C@H](CO)CCCCN
clearance [8]: 39 mL/min/kg
half-life [9]: 11 min
EC50 (Rattus norvegicus [10]): 5 nM

C[C@H](NC(=O)[C@@H](Cc1c[nH]c2ccccc12)NC(=O)[C@@H](N)Cc1c[nH]cn1)C(=O)N[C@@H](Cc1c[nH]c2ccccc12)C(=O)N[C@H](Cc1ccccc1)C(=O)N[C@@H](CCCCN)C(N)=O (H-H[dW]AW[dF]K-NH2)
bioavailability [11]: 0.3%
half-life [12]: 20 min
clearance [13]: 25 mL/min/kg
half-life [9]: 22 min
MED (Canis familiaris [14]): 0.01 mg/kg

CC(C)(N)C(=O)N[C@H](COCc1ccccc1)C(=O)N1CCC2(CC1)CN(S(C)(=O)=O)c1ccccc12 [IBUTAMOREN]
EC50 (Rattus norvegicus [15]): 1.3 nM
Bmax (Rattus norvegicus [16]): 8 fmol/mg
bioavailability [17]: > 60%
Kd (Rattus norvegicus [18]): 0.17 nM
half-life [19]: 282 min
Bmax (fM (mg of protein)-1) (Sus scrofa [20]): 8
MED (Canis familiaris [21]): 0.125 mg/kg
MED (Canis familiaris [22]): 0.025 mg/kg

CCOC(=O)[C@]1(Cc2ccccc2)CCCN(C(=O)[C@@H](Cc2c[nH]c3ccccc23)NC(=O)C(C)(C)N)C1
EC50 (Rattus norvegicus [23]): 1.6 nM

O=C(NC(Cc1c[nH]c2ccccc12)C(=O)N1CCC2(CCc3ccccc32)CC1)NC1CN2CCC1CC2 (stereo not drawn) [SPIROPIPERIDINE]
IC50 (Rattus norvegicus [23]): 50 nM

CSCC[C@@H](NC(=O)[C@H](Cc1ccccc1)NC(=O)CNC(=O)[C@H](Cc1c[nH]c2ccccc12)NC(=O)[C@@H](N)Cc1ccc(O)cc1)C(N)=O
Concentration (Rattus norvegicus [24]): 10 µg/mL

C[C@H](N)C(=O)N[C@@H](Cc1c[nH]cn1)C(=O)N[C@H](Cc1ccc2ccccc2c1)C(=O)N[C@@H](C)C(=O)N[C@@H](Cc1c[nH]c2ccccc12)C(=O)N[C@H](Cc1ccccc1)C(=O)N[C@@H](CCCCN)C(N)=O (H-AH[d2Nal]AW[dF]K-NH2)
EC50 (Rattus norvegicus [25]): 6 nM

Cc1[nH]c2ccccc2c1C[C@H](NC(=O)[C@@H](Cc1c(C)[nH]c2ccccc12)NC(=O)[C@@H](Cc1c(C)[nH]c2ccccc12)NC(=O)CCCN)C(=O)N[C@@H](CCCCN)C(N)=O (H-[GABA][dTrp(2-Me)][dTrp(2-Me)][Trp(2-Me)]K-NH2)
Concentration (Rattus norvegicus [26]): 200 ng/mL

CCOC(=O)[C@H]1CC2(CCN(C(=O)[C@@H](CCCc3ccccc3)NC(=O)C(C)(C)N)CC2)c2ccccc21
EC50 (Rattus norvegicus [23]): 1.9 nM
half-life [27]: 102 min

C[C@@H]1CNC(C)(C)CC(=O)N[C@@H]2CCc3ccccc3N(Cc3ccc(cc3)-c3ccccc3C(=O)NCCCC(=O)O1)C2=O
EC50 (Rattus norvegicus [23]): 21 nM

NCCCC[C@H](NC(=O)[C@@H](Cc1ccccc1)NC(=O)[C@@H](Cc1ccc2ccccc2c1)NC(=O)c1cccc(CN)c1)C(N)=O (H-[3Amb][d2Nal][dF]K-NH2)
EC50 (Rattus norvegicus [23]): 7 nM

Cc1ccc(S(=O)(=O)Nc2ccc3c(c2)CCN(C(=O)[C@@H](Cc2c[nH]c4ccccc24)NC(=O)C(C)(C)N)C3)cc1
ED50 (Rattus norvegicus [28]): > 10 mg/kg
EC50 (Rattus norvegicus [23]): 3 nM

CC(C)(N)CC(=O)NC1CCc2ccccc2N(Cc2ccc(-c3ccccc3C(=O)O)cc2)C1=O (stereo not drawn)
EC50 (Rattus norvegicus [29]): 3000 nM

C[C@H](NC(=O)[C@@H](Cc1ccc2ccccc2c1)NC(=O)[C@@H](C)N)C(=O)N[C@@H](Cc1c[nH]c2ccccc12)C(=O)N[C@H](Cc1ccccc1)C(=O)N[C@@H](CCCCN)C(N)=O [PRALMORELIN] (H-[dA][d2Nal]AW[dF]K-NH2)
half-life [30]: 9 min
EC50 (Rattus norvegicus [31]): 3 nM
clearance [32]: 23 mL/min/kg
